Laboratory results published in PubChem BioAssay (NCI).
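Grown in 96-well plates, cells were treated for 48 hours with each compound at five concentrations. Insufficient inhibition: endpoint recorded as highest concentration tested. The concentration for full growth arrest is given as TGI.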

Tests used:
Assay in all cases: growth of human tumour cells (NCI), 48 h
MOLT-4 leukemia = test system: MOLT-4 leukemia
KM12 colon = test system: KM12 colon
UACC-62 melanoma = test system: UACC-62 melanoma
NCI-H23 lung = test system: NCI-H23 lung
MCF7 breast = test system: MCF7 breast
NCI/ADR-RES ovarian = test system: NCI/ADR-RES ovarian
EKVX NSCLC = test system: EKVX NSCLC
SK-MEL-2 melanoma = test system: SK-MEL-2 melanoma
HCT-15 colon = test system: HCT-15 colon
OVCAR-5 ovarian = test system: OVCAR-5 ovarian
SNB-19 CNS = test system: SNB-19 CNS
CCRF-CEM leukemia = test system: CCRF-CEM leukemia
BT-549 breast = test system: BT-549 breast
SF-295 CNS = test system: SF-295 CNS
DU-145 prostate = test system: DU-145 prostate
SK-MEL-5 melanoma = test system: SK-MEL-5 melanoma
SF-539 CNS = test system: SF-539 CNS
ACHN renal = test system: ACHN renal
UACC-257 melanoma = test system: UACC-257 melanoma
SK-MEL-28 melanoma = test system: SK-MEL-28 melanoma
SF-268 CNS = test system: SF-268 CNS
IGROV1 ovarian = test system: IGROV1 ovarian
CAKI-1 renal = test system: CAKI-1 renal
MDA-MB-231 breast = test system: MDA-MB-231 breast
SW-620 colon = test system: SW-620 colon
786-0 renal = test system: 786-0 renal
MDA-MB-435 = test system: MDA-MB-435
SR leukemia = test system: SR leukemia
RXF 393 renal = test system: RXF 393 renal
M14 melanoma = test system: M14 melanoma
MDA-N = test system: MDA-N
NCI-H522 lung = test system: NCI-H522 lung
OVCAR-8 ovarian = test system: OVCAR-8 ovarian
SNB-75 CNS = test system: SNB-75 CNS
T-47D breast = test system: T-47D breast
HT29 colon = test system: HT29 colon
TK-10 renal = test system: TK-10 renal
U251 CNS = test system: U251 CNS
HCC-2998 colon = test system: HCC-2998 colon
LOX IMVI melanoma = test system: LOX IMVI melanoma
HS 578T breast = test system: HS 578T breast
HOP-92 NSCLC = test system: HOP-92 NSCLC
NCI-H226 lung = test system: NCI-H226 lung
SK-OV-3 ovarian = test system: SK-OV-3 ovarian
A549 NSCLC = test system: A549 NSCLC
NCI-H460 lung = test system: NCI-H460 lung
MALME-3M melanoma = test system: MALME-3M melanoma
A498 renal = test system: A498 renal
HOP-62 NSCLC = test system: HOP-62 NSCLC
COLO 205 colon = test system: COLO 205 colon
HCT-116 colon = test system: HCT-116 colon
SN12C renal = test system: SN12C renal
PC-3 prostate = test system: PC-3 prostate
OVCAR-4 ovarian = test system: OVCAR-4 ovarian
OVCAR-3 ovarian = test system: OVCAR-3 ovarian
UO-31 renal = test system: UO-31 renal
K-562 leukemia = test system: K-562 leukemia
RPMI-8226 leukemia = test system: RPMI-8226 leukemia

## O=C1c2cc([N+](=O)[O-])sc2C(=O)c2cc([N+](=O)[O-])sc21
MOLT-4 leukemia
  TGI: > 22.7 µM
KM12 colon
  TGI: 14.8 µM
UACC-62 melanoma
  TGI: 3.8 µM
NCI-H23 lung
  TGI: 15.5 µM
MCF7 breast
  TGI: 9.92 µM
NCI/ADR-RES ovarian
  TGI: 11.3 µM
EKVX NSCLC
  TGI: 7.78 µM
SK-MEL-2 melanoma
  TGI: 21.4 µM
HCT-15 colon
  TGI: 3.55 µM
OVCAR-5 ovarian
  TGI: 15.5 µM
SNB-19 CNS
  TGI: 8.9 µM
CCRF-CEM leukemia
  TGI: > 19.8 µM
BT-549 breast
  TGI: 3.95 µM
SF-295 CNS
  TGI: 23.9 µM
DU-145 prostate
  TGI: 23.9 µM
SK-MEL-5 melanoma
  TGI: 7.21 µM
SF-539 CNS
  TGI: 8.51 µM
ACHN renal
  TGI: 10.1 µM
UACC-257 melanoma
  TGI: 11.8 µM
SK-MEL-28 melanoma
  TGI: 8.3 µM
SF-268 CNS
  TGI: 10 µM
IGROV1 ovarian
  TGI: 3.07 µM
CAKI-1 renal
  TGI: 8.81 µM
MDA-MB-231 breast
  TGI: 5.66 µM
SW-620 colon
  TGI: 3.37 µM
786-0 renal
  TGI: 6.78 µM
MDA-MB-435
  TGI: 4.73 µM
SR leukemia
  TGI: 6 µM
RXF 393 renal
  TGI: 15.5 µM
M14 melanoma
  TGI: 9.25 µM
MDA-N
  TGI: 4.72 µM
NCI-H522 lung
  TGI: 3.02 µM
OVCAR-8 ovarian
  TGI: 18.6 µM
SNB-75 CNS
  TGI: 26.3 µM
T-47D breast
  TGI: 10.8 µM
HT29 colon
  TGI: 11.5 µM
TK-10 renal
  TGI: 13 µM
U251 CNS
  TGI: 3.38 µM
HCC-2998 colon
  TGI: 8.56 µM
LOX IMVI melanoma
  TGI: 3.68 µM
HS 578T breast
  TGI: 35 µM
HOP-92 NSCLC
  TGI: 4.04 µM
NCI-H226 lung
  TGI: 26.3 µM
SK-OV-3 ovarian
  TGI: 25.2 µM
A549 NSCLC
  TGI: 49.6 µM
NCI-H460 lung
  TGI: 43.8 µM
MALME-3M melanoma
  TGI: 2.38 µM
A498 renal
  TGI: 32.7 µM
HOP-62 NSCLC
  TGI: 15.3 µM
COLO 205 colon
  TGI: 6.1 µM
HCT-116 colon
  TGI: 3.24 µM
SN12C renal
  TGI: 7.12 µM
PC-3 prostate
  TGI: 15.9 µM
OVCAR-4 ovarian
  TGI: 8.71 µM
OVCAR-3 ovarian
  TGI: 6.65 µM
UO-31 renal
  TGI: 7.68 µM

## CCC(=O)Nc1ncnc2ncn(C(=O)CC)c12
MOLT-4 leukemia
  TGI: > 100 µM
KM12 colon
  TGI: > 100 µM
UACC-62 melanoma
  TGI: > 100 µM
NCI-H23 lung
  TGI: > 100 µM
K-562 leukemia
  TGI: > 100 µM
RPMI-8226 leukemia
  TGI: > 100 µM
MCF7 breast
  TGI: > 100 µM
NCI/ADR-RES ovarian
  TGI: > 100 µM
EKVX NSCLC
  TGI: > 100 µM
SK-MEL-2 melanoma
  TGI: > 100 µM
HCT-15 colon
  TGI: > 100 µM
OVCAR-5 ovarian
  TGI: > 100 µM
SNB-19 CNS
  TGI: > 100 µM
BT-549 breast
  TGI: > 100 µM
SF-295 CNS
  TGI: > 100 µM
DU-145 prostate
  TGI: > 100 µM
ACHN renal
  TGI: > 100 µM
UACC-257 melanoma
  TGI: > 100 µM
SK-MEL-28 melanoma
  TGI: > 100 µM
SF-268 CNS
  TGI: > 100 µM
IGROV1 ovarian
  TGI: > 100 µM
CAKI-1 renal
  TGI: > 100 µM
MDA-MB-231 breast
  TGI: > 100 µM
SW-620 colon
  TGI: > 100 µM
786-0 renal
  TGI: > 100 µM
MDA-MB-435
  TGI: > 100 µM
SR leukemia
  TGI: > 100 µM
RXF 393 renal
  TGI: > 100 µM
M14 melanoma
  TGI: > 100 µM
MDA-N
  TGI: > 100 µM
NCI-H522 lung
  TGI: > 100 µM
OVCAR-8 ovarian
  TGI: > 100 µM
SNB-75 CNS
  TGI: > 100 µM
T-47D breast
  TGI: > 100 µM
HT29 colon
  TGI: > 100 µM
TK-10 renal
  TGI: > 100 µM
U251 CNS
  TGI: > 100 µM
HCC-2998 colon
  TGI: > 100 µM
LOX IMVI melanoma
  TGI: > 100 µM
HS 578T breast
  TGI: > 100 µM
HOP-92 NSCLC
  TGI: > 100 µM
SK-OV-3 ovarian
  TGI: > 100 µM
A549 NSCLC
  TGI: > 100 µM
NCI-H460 lung
  TGI: > 100 µM
MALME-3M melanoma
  TGI: > 100 µM
A498 renal
  TGI: > 100 µM
HOP-62 NSCLC
  TGI: > 100 µM
HCT-116 colon
  TGI: > 100 µM
SN12C renal
  TGI: > 100 µM
PC-3 prostate
  TGI: > 100 µM
OVCAR-4 ovarian
  TGI: > 100 µM
OVCAR-3 ovarian
  TGI: > 100 µM
UO-31 renal
  TGI: > 100 µM
